These are literature values, as cited in paper PMC3074188 (Journal of natural products, 2010).

The test system of the data set is HT-29 cell line.

Take `CC(C)C[C@H](NC(=O)[C@H](Cc1ccccc1)NC(=O)c1cnccn1)B(O)O` [bortezomib]: the “sensitivity of HT-29 cell line (in words)” value is “sensitive”.
